Assay results taken from the SangsterLogP compilation.

Assay: method code G-GLC, from DOI: 10.1021/je0101909

In order of rising logP:
1. Clc1ccc(-c2cc(Cl)c(Cl)c(Cl)c2Cl)cc1  6.47
2. Clc1ccc(-c2cc(Cl)c(Cl)cc2Cl)cc1Cl  6.49
3. Clc1ccc(-c2cc(Cl)c(Cl)c(Cl)c2)c(Cl)c1  6.5
4. Clc1ccc(-c2cc(Cl)c(Cl)c(Cl)c2)cc1  6.53
5. Clc1ccc(-c2cc(Cl)c(Cl)c(Cl)c2)cc1Cl  6.56
6. Clc1ccc(-c2ccc(Cl)c(Cl)c2Cl)cc1Cl  6.61
7. Clc1cc(-c2ccc(Cl)c(Cl)c2Cl)cc(Cl)c1Cl  6.73
8. Clc1ccc(-c2cc(Cl)c(Cl)c(Cl)c2Cl)cc1Cl  6.75
9. Clc1cc(Cl)c(-c2cc(Cl)c(Cl)c(Cl)c2)cc1Cl  6.82
10. Clc1cc(-c2cc(Cl)c(Cl)c(Cl)c2)cc(Cl)c1Cl  7.01
11. Clc1cc(-c2cc(Cl)c(Cl)c(Cl)c2Cl)cc(Cl)c1Cl  7.15
